Literature values in paper PMC10544575, “Inhibitory mechanism of vortioxetine on CYP450 enzymes in human and rat liver microsomes” (Frontiers in Pharmacology, 2023).

How the values were obtained:
Conditions in all cases: in vitro; ref Wójcikowski et al., 2020; cited from earlier work
CYP3A4 = CYP3A4 (Homo sapiens, UniProt P08684); design: 0.20 mg/mL HLMs or 0.20 mg/mL RLMs; from tissue; host or cells: human liver microsomes; method as in Wójcikowski et al., 2020
CYP2D6 = CYP2D6 (Homo sapiens, UniProt P10635); design: 0.20 mg/mL HLMs or 0.20 mg/mL RLMs; from tissue; host or cells: human liver microsomes; method as in Wójcikowski et al., 2020
CYP1A2 = test system: CYP1A2; design: method as in Wójcikowski et al., 2020

Chain of CYP2D6 (P10635 whole entry): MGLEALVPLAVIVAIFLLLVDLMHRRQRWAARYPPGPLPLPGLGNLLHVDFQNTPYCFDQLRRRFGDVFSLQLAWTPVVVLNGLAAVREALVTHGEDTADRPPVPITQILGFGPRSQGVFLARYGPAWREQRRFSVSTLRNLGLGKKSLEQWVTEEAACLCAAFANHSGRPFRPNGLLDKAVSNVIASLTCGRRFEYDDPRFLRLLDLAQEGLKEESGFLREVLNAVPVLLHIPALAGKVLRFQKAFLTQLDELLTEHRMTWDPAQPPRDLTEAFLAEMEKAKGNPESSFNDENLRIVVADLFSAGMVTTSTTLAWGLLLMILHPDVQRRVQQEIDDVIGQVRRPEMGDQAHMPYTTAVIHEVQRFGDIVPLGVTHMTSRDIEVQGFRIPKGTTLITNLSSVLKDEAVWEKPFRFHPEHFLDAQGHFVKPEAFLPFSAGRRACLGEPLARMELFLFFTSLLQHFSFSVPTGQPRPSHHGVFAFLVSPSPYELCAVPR
Chain of CYP3A4 (P08684 whole entry): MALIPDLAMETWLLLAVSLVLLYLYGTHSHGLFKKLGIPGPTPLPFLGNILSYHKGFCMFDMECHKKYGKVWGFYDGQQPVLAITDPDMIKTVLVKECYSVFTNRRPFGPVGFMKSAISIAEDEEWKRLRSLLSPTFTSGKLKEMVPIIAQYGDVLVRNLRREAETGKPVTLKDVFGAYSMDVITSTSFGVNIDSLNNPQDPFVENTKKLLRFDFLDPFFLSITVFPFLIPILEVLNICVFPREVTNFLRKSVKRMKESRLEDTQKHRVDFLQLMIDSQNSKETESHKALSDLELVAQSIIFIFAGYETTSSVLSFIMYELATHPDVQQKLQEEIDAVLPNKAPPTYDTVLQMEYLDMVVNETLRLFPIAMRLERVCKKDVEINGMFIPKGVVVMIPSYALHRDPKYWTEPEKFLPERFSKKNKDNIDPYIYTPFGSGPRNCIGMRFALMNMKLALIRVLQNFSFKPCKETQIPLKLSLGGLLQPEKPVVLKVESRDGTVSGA

CN1CC2c3ccccc3Oc3ccc(Cl)cc3C2C1 (stereo not drawn) [asenapine]
significantly inhibited: inhibition of CYP3A4 (CYP3A4) | inhibition of CYP2D6 (CYP2D6) | inhibition of CYP1A2 (CYP1A2)
